Laboratory results taken from patent publication US5726155A, “Regulation of oxidative burst using LMWG-derived peptides and analogs” (The Scripps Research Institute, priority 1993, dated 1998).
Where no end group is shown, it is not given here.

Experiments:
NADPH oxidase [1] = assay: cell-free NADPH oxidase assay with GAP proteins; type: biochemical, human
Protocol: Subcellular fractions from human neutrophils for use in cell-free NADPH oxidase assays were prepared as described previously (Curnutte, et al., PNAS USA 86: 825-829 (1989)). Cell-free oxidase assays were conducted as described in Heyworth, et al., Mol. Biol. Cell 4: 261-269 (1993) and Curnutte, et al., Id. (1989). In order to deplete endogenous guanine nucleotides for some experiments, cytosol was dialyzed overnight against three 2-liter volumes of 100 mM KCl/3 mM NaCl/3.5 mM MgCl2 /10 mM PIPES, pH 7.3, as previously described (Peveri, et al., PNAS USA 89: 2494-2498 (1992)). Reaction mixtures contained 4×10^5 cell equivalents (cell eq) of human neutrophil membranes and 1.8×10^6cell eq of neutrophil cytosol. Reactions were performed in the absence of GTPγS, unless otherwise indicated (see FIGS. 3, 7, 8, and 9, and accompanying legends), and with the indicated concentrations of p190 GAP. Rates of O2^- production were calculated from maximum rates of absorbance change after initiation of the reaction with 110 μM SDS.

NADPH oxidase [2] = target: T1, NADPH oxidase (Homo sapiens, UniProt P04839+P13498+P14598+P19878); assay: cell-free NADPH oxidase assay (O2- production), inhibition by peptides; type: biochemical; conditions: for Inhibitory Activity: Table 3, peptide incubated five minutes before 90 μM SDS or 100 μM arachidonic acid; for Percent Inhibition: cell-free system
T1 construct: 4×10^5 cell equivalents (cell eq) of neutrophil membranes; of neutrophil cytosol, or (2) 100 nM each of baculovirus recombinant p47-phox and p67-phox; from tissue; host or cells: neutrophil membranes and cytosol (human neutrophils, leukapheresis or blood)
Protocol: Production of O2^- by NADPH oxidase may be monitored in a cell-free system at 25° C. by following the superoxide dismutase (SOD)-inhibitable reduction of cytochrome c at […], as described in Curnutte, et al., PNAS USA 86: 825-829 (1989). The method may be described essentially as follows.
Activation of the dormant respiratory burst oxidase in a cell-free system by SDS in the presence of cytosol (or partially-purified cytosol factor components) was monitored by measuring O2^- production by the activated oxidase. O2^- generation was determined by a continuous assay in which superoxide dismutase-inhibitable cytochrome c reduction was followed with time at 25° C. in a double-beam spectrophotometer at 550 nm by a modification of the method described in Curnutte, et al., J. Biol. Chem. 262: 6450-6452 (1987). Assay mixtures contained (final concentration) 0.15 mM cytochrome c, 6.5 mM MgCl2, 87 mM KCl, 2.6 mM NaCl, 8.7 mM PIPES (pH 7.3), 0.27 mM ATP (Sigma), 0.33 mM EGTA, 0.16 mM NADPH, and 0.04 mM SDS, plus 0.9×10^7 cell eq of cytosol and 1.55×10^6 cell eq of membranes solubilized in deoxycholate (0.94 mM) in 375 μl. The reference cuvette also received 22.5 μg of superoxide dismutase. All components except NADPH were mixed in the cuvette and allowed to stand for 3.5 minutes to allow activation of the oxidase by SDS. Reactions were then started with NADPH and followed at 550 nm on a Uvikon 810 dual-beam recording spectrophotometer (Kontron, Zurich). Data were collected on a strip chart recorder and the maximal velocity of the reaction, which occurred during the first 20 sec, was used to calculate the oxidase activity.
A modification of the above-noted method was used for most of the studies described herein and may be summarized as follows. Reaction mixtures (generally, in 96-well microtiter plates) typically contain 0.1 mM cytochrome c, 6.5 mM MgCl2, 87 mM KCl, 2.6 mM NaCl, 8.7 mM PIPES (pH 7.3), 10 μM GTPγS, 0.16 mM NADPH, and 4×10^5 cell equivalents (cell eq) of neutrophil membranes (about 1.6 μg protein), in a total volume of 150 μl. In addition, reactions contain varying amounts of recombinant LMWG protein, and either (1) 8 μl (7.2×10^5 cell eq.; about 18 μg protein) of neutrophil cytosol, or (2) 100 nM each of baculovirus recombinant p47-phox and p67-phox as specified herein. Control wells (paired with each reaction well) contained 9 μg SOD, to account for non-O2^- -dependent reduction of cytochrome c. Superoxide production is initiated by the addition of SDS to give a final concentration of either 90 μM (with recombinant p47-phox/p67-phox) or 110 μM (with neutrophil cytosol). Maximum rates of absorbance change, calculated from the first derivative of the time course using Softmax software (Molecular Devices, release 2.01, Menlo Park, Calif., were converted to nmol O2^- generated/min/10^7 cell eq of membrane, after subtracting the rate achieved in the presence of SOD from that obtained in its absence, to give the rate of O2^- -dependent cytochrome c reduction, by using an extinction coefficient of 20.5 mM^-1 cm^-1 for reduced minus oxidized cytochrome c, a value determined experimentally for the 550±1-nm filter used in the kinetic microplate reader and the path length of the 250-μl reaction mixture. (See, e.g., Curnutte, et al., PNAS USA 86: 825-829 (1989).
Peptides were tested for oxidase inhibiting activity using the cell-free assay of Curnutte, et al. (PNAS USA 86: 825-829 (1989)). Peptides were added at indicated concentrations and incubated for five minutes at room temperature prior to initiation of O2^- formation using either 90 μM SDS or 100 μM arachidonic acid as an activating stimulus.

Rac2 protein = Rac2 protein (Homo sapiens, UniProt P15153); assay: guanine nucleotide (GDP/GTP) exchange; type: biochemical; conditions: FIG. 4
Rap1A = target: T2, Rap1A (Homo sapiens, UniProt P62834); assay: guanine nucleotide (GDP/GTP) exchange; type: biochemical
T2 construct: Recombinant full length Rap1a, H-Ras, and CDC42Hs were purified after expression in a baculovirus/Sf9 insect cell system; made in house; host or cells: baculovirus/Sf9 insect cells
T2 sequence (P62834 1-184): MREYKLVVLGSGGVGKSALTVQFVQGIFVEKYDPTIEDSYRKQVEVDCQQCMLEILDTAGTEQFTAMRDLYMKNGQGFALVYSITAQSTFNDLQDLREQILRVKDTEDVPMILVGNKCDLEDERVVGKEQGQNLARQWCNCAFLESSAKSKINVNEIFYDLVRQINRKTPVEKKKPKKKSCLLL

T1 sequence (P04839 2-570 limits assumed): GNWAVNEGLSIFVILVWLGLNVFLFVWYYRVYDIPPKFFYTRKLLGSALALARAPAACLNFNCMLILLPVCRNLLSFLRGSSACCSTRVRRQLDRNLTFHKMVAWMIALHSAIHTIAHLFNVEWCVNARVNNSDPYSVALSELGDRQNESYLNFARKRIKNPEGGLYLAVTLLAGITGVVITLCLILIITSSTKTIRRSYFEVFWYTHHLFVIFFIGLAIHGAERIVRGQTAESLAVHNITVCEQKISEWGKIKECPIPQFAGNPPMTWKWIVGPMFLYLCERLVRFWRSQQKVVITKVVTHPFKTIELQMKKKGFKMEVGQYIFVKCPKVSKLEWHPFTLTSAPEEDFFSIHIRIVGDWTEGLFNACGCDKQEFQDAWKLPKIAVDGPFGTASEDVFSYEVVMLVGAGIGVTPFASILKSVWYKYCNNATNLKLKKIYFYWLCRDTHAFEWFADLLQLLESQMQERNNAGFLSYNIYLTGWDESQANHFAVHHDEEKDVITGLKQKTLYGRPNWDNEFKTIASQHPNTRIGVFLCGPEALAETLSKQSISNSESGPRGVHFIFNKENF
T1 sequence (P13498 2-195 limits assumed): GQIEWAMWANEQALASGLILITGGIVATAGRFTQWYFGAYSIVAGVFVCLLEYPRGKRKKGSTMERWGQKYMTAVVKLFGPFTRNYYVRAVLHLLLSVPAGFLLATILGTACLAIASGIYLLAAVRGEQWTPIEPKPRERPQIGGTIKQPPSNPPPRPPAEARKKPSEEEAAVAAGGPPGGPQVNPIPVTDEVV
T1 sequence (P14598 whole entry): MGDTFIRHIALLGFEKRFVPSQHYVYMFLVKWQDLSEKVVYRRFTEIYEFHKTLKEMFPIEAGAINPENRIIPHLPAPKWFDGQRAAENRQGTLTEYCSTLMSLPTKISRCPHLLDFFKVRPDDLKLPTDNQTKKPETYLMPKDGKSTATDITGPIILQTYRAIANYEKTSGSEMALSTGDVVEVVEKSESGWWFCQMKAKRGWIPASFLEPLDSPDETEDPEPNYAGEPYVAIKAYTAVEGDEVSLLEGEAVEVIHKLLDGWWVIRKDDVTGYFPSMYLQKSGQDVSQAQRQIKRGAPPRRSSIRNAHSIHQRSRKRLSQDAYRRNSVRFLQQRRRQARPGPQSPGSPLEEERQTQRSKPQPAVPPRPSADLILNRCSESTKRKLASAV
T1 sequence (P19878 whole entry): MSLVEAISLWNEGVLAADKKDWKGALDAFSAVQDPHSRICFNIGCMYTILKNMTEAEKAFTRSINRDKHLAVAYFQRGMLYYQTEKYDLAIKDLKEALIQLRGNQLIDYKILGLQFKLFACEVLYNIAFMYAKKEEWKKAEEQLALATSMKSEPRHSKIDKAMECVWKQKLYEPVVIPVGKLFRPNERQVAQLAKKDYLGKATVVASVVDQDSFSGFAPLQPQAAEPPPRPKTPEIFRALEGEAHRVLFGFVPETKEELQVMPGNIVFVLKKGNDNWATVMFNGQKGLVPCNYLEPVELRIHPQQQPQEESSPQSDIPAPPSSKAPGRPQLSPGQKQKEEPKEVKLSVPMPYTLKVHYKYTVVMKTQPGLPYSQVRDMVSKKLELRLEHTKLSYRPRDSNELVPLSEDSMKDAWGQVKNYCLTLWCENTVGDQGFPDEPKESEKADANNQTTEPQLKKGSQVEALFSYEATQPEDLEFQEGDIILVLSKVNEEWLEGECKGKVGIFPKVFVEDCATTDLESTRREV

With `c1ccc2c(c1)[I+]c1ccccc1-2` [diphenylene iodonium, reference compound] the “inhibition of O2- formation when added after initiation with SDS” value (NADPH oxidase [1]; added 1.7 or 5 minutes after SDS, p190 GAP 350 nM, DPI 1 μM, FIG. 9) was “could be inhibited”.
For “CPPPVKKRKRK [Rac1 aa178-188, CPPPVKKRKRK]”, the “Inhibitory Activity” value (NADPH oxidase [2]) was “Active”.
“CPQPTRQQKRA [Rac2 aa178-188, CPQPTRQQKRA]” was tested, and the “Inhibitory Activity” value (NADPH oxidase [2]) was “Active”.
EKKKPKKKS [Rap1A aa172-180, EKKKPKKKS] was tested, and the “Inhibitory Activity” value (NADPH oxidase [2]) was “Active”.
In the case of “EKLKEKKLTPI [Rac1 aa127-137, EKLKEKKLTPI]”, the “Inhibitory Activity” value (NADPH oxidase [2]) is reported as “Inactive”.
“GEHAQKHEQALQKLA [ECG 163, GEHAQKHEQALQKLA, reference compound]” was tested, and the “Percent Inhibition” value (NADPH oxidase [2]; 100 μg/ml peptide) was 8.0%, the “Percent Inhibition” value (NADPH oxidase [2]; 200 μg/ml peptide) was 5.1% and the “Inhibitory Activity” value (NADPH oxidase [2]) was “Inactive”.
In the case of “GELAQKLEQALQKLA [ECG 125, GELAQKLEQALQKLA, reference compound]”, the “Percent Inhibition” value (NADPH oxidase [2]; 100 μg/ml peptide) is reported as 23.3%, the “Percent Inhibition” value (NADPH oxidase [2]; 200 μg/ml peptide) is reported as 34.0% and the “Inhibitory Activity” value (NADPH oxidase [2]) is reported as “Inactive”.
With “GLAQKLLEALQKALLA [ICS4, GLAQKLLEALQKALLA]” the “Percent Inhibition” value (NADPH oxidase [2]; 27 μg/ml peptide) was 86.8%, the “Percent Inhibition” value (NADPH oxidase [2]; 100 μg/ml peptide) was 99.8% and the “Inhibitory Activity” value (NADPH oxidase [2]) was “Active”.
In the case of “GLTISSLFSRLFGKKQ [ARF 26, GLTISSLFSRLFGKKQ]”, the “Percent Inhibition” value (NADPH oxidase [2]; 27 μg/ml peptide) is reported as 30.9% and the “Percent Inhibition” value (NADPH oxidase [2]; 100 μg/ml peptide) is reported as 100%.
In the case of “GTPγS-bound form of RhoA: recombinant Sf9 cell RhoA bound to GTPγS”, the “reversal of p190 GAP inhibition of NADPH oxidase by added GTP-binding protein” value (NADPH oxidase [1]; 280 nM p190 GAP, Rac1.GTPγS 30 nM, RhoA.GTPγS 100 nM, Rac2 (Q61L) 10 nM, FIG. 8) is reported as “did not reverse inhibition”.
INLKALAALAKKIL-NH2 [Mastoparan] was tested, and the “GDP/GTP exchange on Rac” value (Rac2 protein) was “stimulate GDP/GTP exchange”, the “inhibition of NADPH oxidase activity, in words” value (NADPH oxidase [2]; FIG. 1, dose/response conditions) was “most dramatic” and the “Inhibitory Activity” value (NADPH oxidase [2]) was “Active”. The “GDP/GTP exchange on Rap1A” value (Rap1A) was “stimulate GDP/GTP exchange”.
For KNVFDEAILAALEPPEPKKSRR [CDC42Hs], the “Inhibitory Activity” value (NADPH oxidase [2]) was “Inactive”.
For “LTQRGLKTVFDE [Rac1 aa161-172, LTQRGLKTVFDE]”, the “Inhibitory Activity” value (NADPH oxidase [2]) was “Inactive”.
“MGCTVSAEDKAAAER [Gi #5, MGCTVSAEDKAAAER, reference compound]” was tested, and the “Inhibitory Activity” value (NADPH oxidase [2]) was “Inactive”.
In the case of PGKARKKSS [Rap1B aa172-180, PGKARKKSS], the “Inhibitory Activity” value (NADPH oxidase [2]) is reported as “Active”.
In the case of “SKFEDLNKRKDT [Gi #2, SKFEDLNKRKDT, reference compound]”, the “Inhibitory Activity” value (NADPH oxidase [2]) is reported as “Inactive”.
For SSLFSRLFGKKQ [ARF 28, SSLFSRLFGKKQ], the “Percent Inhibition” value (NADPH oxidase [2]; 27 μg/ml peptide) was 43.5% and the “Percent Inhibition” value (NADPH oxidase [2]; 100 μg/ml peptide) was 87.6%.
TISSLFSRLFGKKQ [ARF 27, TISSLFSRLFGKKQ] was tested, and the “Percent Inhibition” value (NADPH oxidase [2]; 27 μg/ml peptide) was 55.9% and the “Percent Inhibition” value (NADPH oxidase [2]; 100 μg/ml peptide) was 91.3%.
